Patent US11180462B2, “Microbiocidal oxadiazole derivatives” (SYNGENTA PARTICIPATIONS AG, priority 2015, dated 2021)

Legend:
[1] = system: Puccinia recondita f. Sp. Tritici; test: Fungicidal activity against Puccinia recondita f. sp. tritici / wheat / leaf disc preventative (brown rust); assay type: in vivo; settings: foliar, 200 ppm in the applied formulation, wheat leaf segments, preventative, compared to untreated control leaf disks, read-out: disease control
In short: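 200 ppm spray on wheat cv. Kanzler leaf segments; spore inoculation +1 day; 19° C., 75% rh, 12 h/12 h light cycle; single rating of % control vs untreated at 7 to 9 days.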

[2] = system: Puccinia recondita f. Sp. Tritici; test: Fungicidal activity against Puccinia recondita f. sp. tritici / wheat / leaf disc curative (brown rust); assay type: in vivo; settings: foliar, 24 h, 200 ppm in the applied formulation, wheat leaf segments, curative (applied 1 day after inoculation), compared to untreated control leaf disks, read-out: disease control
In short: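 Inoculate cv. Kanzler segments on agar; hold dark, 19° C, 75% RH. Spray diluted formulated compound at day 1. Incubate 12 h light/12 h dark, same temperature and humidity; score % control vs untreated 6–8 days later.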

[3] = system: Glomerella lagenarium (Colletotrichum lagenarium); test: Fungicidal activity against Glomerella lagenarium (Colletotrichum lagenarium) liquid culture / cucumber / preventative (anthracnose); assay type: cell-based; settings: Colletotrichum orbiculare; 20 ppm in the applied formulation; liquid culture (PDB), growth inhibition measured photometrically after 3 to 4 days; compared to untreated control; read-out: disease control
In short: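 Percent activity against the untreated check was derived from photometric growth measurements made 2 to 7 days after conidia in potato dextrose broth were combined with compound at 20 ppm. Cultures were kept dark at 24 °C and 96% humidity.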

Phakopsora Pachyrhizi = test: Fungicidal activity against Phakopsora pachyrhizi / soybean / leaf disc preventative (Asian soybean rust); assay type: in vivo; settings: foliar, 200 ppm in the applied formulation, soybean leaf disks, compared to untreated control leaf disks, read-out: disease control
In short: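 Scored 12 to 14 days post-application as percent control relative to untreated check discs, rust spores were sprayed under the disc one day after compound treatment. Incubation: 20°C, 75% rh, first 24–36 h in darkness, then 12 h daily light; discs kept on water agar.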

CCC(=O)N(Cc1ccc(-c2noc(C(F)(F)F)n2)cc1)Cc1ccco1 [Compound 1.457, N-(2-furylmethyl)-N-[[4-[5-(trifluoromethyl)-1,2,4-oxadiazol-3-yl]phenyl]methyl]-propanamide]
≥ 80%: pest or weed control at 200 ppm [1] | pest or weed control at 200 ppm [2] | inhibition of growth at 20 ppm [3] | pest or weed control at 200 ppm (Phakopsora Pachyrhizi)

CCC(C)C(=O)N(Cc1ccc(-c2noc(C(F)(F)F)n2)cc1)Cc1ccco1 (stereo not drawn) [Compound 1.466]
≥ 80%: pest or weed control at 200 ppm [1] | pest or weed control at 200 ppm [2] | inhibition of growth at 20 ppm [3] | pest or weed control at 200 ppm (Phakopsora Pachyrhizi)

COC(C)C(=O)N(Cc1ccc(-c2noc(C(F)(F)F)n2)cc1)Cc1ccco1 (stereo not drawn) [Compound 1.472, N-(2-furylmethyl)-2-methoxy-N-[[4-[5-(trifluoromethyl)-1,2,4-oxadiazol-3-yl]phenyl]methyl]-propanamide]
≥ 80%: pest or weed control at 200 ppm [1] | pest or weed control at 200 ppm [2] | inhibition of growth at 20 ppm [3] | pest or weed control at 200 ppm (Phakopsora Pachyrhizi)

C=CCN(Cc1ccc(-c2noc(C(F)(F)F)n2)cc1)C(=O)CCOC [Compound 1.476, N-allyl-3-methoxy-N-[[4-[5-(trifluoromethyl)-1,2,4-oxadiazol-3-yl]phenyl]methyl]-propanamide]
≥ 80%: pest or weed control at 200 ppm [1] | pest or weed control at 200 ppm [2] | inhibition of growth at 20 ppm [3] | pest or weed control at 200 ppm (Phakopsora Pachyrhizi)

C=CCN(Cc1ccc(-c2noc(C(F)(F)F)n2)cc1)C(=O)CC [Compound 1.477, N-allyl-N-[[4-[5-(trifluoromethyl)-1,2,4-oxadiazol-3-yl]phenyl]methyl]-propanamide]
≥ 80%: pest or weed control at 200 ppm [1] | pest or weed control at 200 ppm [2] | inhibition of growth at 20 ppm [3] | pest or weed control at 200 ppm (Phakopsora Pachyrhizi)

C=CCN(Cc1ccc(-c2noc(C(F)(F)F)n2)cc1)C(=O)C1CCC1 [Compound 1.478, N-allyl-N-[[4-[5-(trifluoromethyl)-1,2,4-oxadiazol-3-yl]phenyl]methyl]-cyclobutane-carboxamide]
≥ 80%: pest or weed control at 200 ppm [1] | pest or weed control at 200 ppm [2] | inhibition of growth at 20 ppm [3] | pest or weed control at 200 ppm (Phakopsora Pachyrhizi)

C=CCN(Cc1ccc(-c2noc(C(F)(F)F)n2)cc1)C(=O)COC [Compound 1.479, N-allyl-2-methoxy-N-[[4-[5-(trifluoromethyl)-1,2,4-oxadiazol-3-yl]phenyl]methyl]-acetamide]
≥ 80%: pest or weed control at 200 ppm [1] | pest or weed control at 200 ppm [2] | inhibition of growth at 20 ppm [3] | pest or weed control at 200 ppm (Phakopsora Pachyrhizi)

C=CCN(Cc1ccc(-c2noc(C(F)(F)F)n2)cc1)C(=O)C1CC1C (stereo not drawn) [Compound 1.480, N-allyl-2-methyl-N-[[4-[5-(trifluoromethyl)-1,2,4-oxadiazol-3-yl]phenyl]methyl]-cyclopropane-carboxamide]
≥ 80%: pest or weed control at 200 ppm [1] | pest or weed control at 200 ppm [2] | inhibition of growth at 20 ppm [3] | pest or weed control at 200 ppm (Phakopsora Pachyrhizi)

C=CCN(Cc1ccc(-c2noc(C(F)(F)F)n2)cc1)C(=O)C(C)C [Compound 1.483, N-allyl-2-methyl-N-[[4-[5-(trifluoromethyl)-1,2,4-oxadiazol-3-yl]phenyl]methyl]-propanamide]
≥ 80%: pest or weed control at 200 ppm [1] | pest or weed control at 200 ppm [2] | inhibition of growth at 20 ppm [3] | pest or weed control at 200 ppm (Phakopsora Pachyrhizi)

C=CCN(Cc1ccc(-c2noc(C(F)(F)F)n2)cc1)C(=O)C1CC1(F)F (stereo not drawn) [Compound 1.484, N-allyl-2,2-difluoro-N-[[4-[5-(trifluoromethyl)-1,2,4-oxadiazol-3-yl]phenyl]methyl]-cyclopropane-carboxamide]
≥ 80%: pest or weed control at 200 ppm [1] | pest or weed control at 200 ppm [2] | inhibition of growth at 20 ppm [3] | pest or weed control at 200 ppm (Phakopsora Pachyrhizi)

C=CCN(Cc1ccc(-c2noc(C(F)(F)F)n2)cc1)C(=O)CCC [Compound 1.485, N-allyl-N-[[4-[5-(trifluoromethyl)-1,2,4-oxadiazol-3-yl]phenyl]methyl]-butanamide]
≥ 80%: pest or weed control at 200 ppm [1] | pest or weed control at 200 ppm [2] | inhibition of growth at 20 ppm [3] | pest or weed control at 200 ppm (Phakopsora Pachyrhizi)

C=CCN(Cc1ccc(-c2noc(C(F)(F)F)n2)cc1)C(=O)C(C)CC (stereo not drawn) [Compound 1.486, N-allyl-2-methyl-N-[[4-[5-(trifluoromethyl)-1,2,4-oxadiazol-3-yl]phenyl]methyl]-butanamide]
≥ 80%: pest or weed control at 200 ppm [1] | pest or weed control at 200 ppm [2] | inhibition of growth at 20 ppm [3] | pest or weed control at 200 ppm (Phakopsora Pachyrhizi)

C=CCN(Cc1ccc(-c2noc(C(F)(F)F)n2)cc1)C(=O)CCCOC [Compound 1.487, N-allyl-4-methoxy-N-[[4-[5-(trifluoromethyl)-1,2,4-oxadiazol-3-yl]phenyl]methyl]-butanamide]
≥ 80%: pest or weed control at 200 ppm [1] | pest or weed control at 200 ppm [2] | inhibition of growth at 20 ppm [3] | pest or weed control at 200 ppm (Phakopsora Pachyrhizi)

C=CCN(Cc1ccc(-c2noc(C(F)(F)F)n2)cc1)C(=O)C1(C)COC1 [Compound 1.488, N-allyl-3-methyl-N-[[4-[5-(trifluoromethyl)-1,2,4-oxadiazol-3-yl]phenyl]methyl]-oxetane-3-carboxamide]
≥ 80%: pest or weed control at 200 ppm [1] | pest or weed control at 200 ppm [2] | inhibition of growth at 20 ppm [3] | pest or weed control at 200 ppm (Phakopsora Pachyrhizi)

C=CCN(Cc1ccc(-c2noc(C(F)(F)F)n2)cc1)C(=O)C1CCCO1 (stereo not drawn) [Compound 1.489, N-allyl-N-[[4-[5-(trifluoromethyl)-1,2,4-oxadiazol-3-yl]phenyl]methyl]-tetrahydrofuran-2-carboxamide]
≥ 80%: pest or weed control at 200 ppm [1] | pest or weed control at 200 ppm [2] | inhibition of growth at 20 ppm [3] | pest or weed control at 200 ppm (Phakopsora Pachyrhizi)

C=CCN(Cc1ccc(-c2noc(C(F)(F)F)n2)cc1)C(=O)C1CC1F (stereo not drawn) [Compound 1.491, N-allyl-2-fluoro-N-[[4-[5-(trifluoromethyl)-1,2,4-oxadiazol-3-yl]phenyl]methyl]-cyclopropane-carboxamide]
≥ 80%: pest or weed control at 200 ppm [1] | pest or weed control at 200 ppm [2] | inhibition of growth at 20 ppm [3] | pest or weed control at 200 ppm (Phakopsora Pachyrhizi)

C=CCN(Cc1ccc(-c2noc(C(F)(F)F)n2)cc1)C(=O)C(C)OC (stereo not drawn) [Compound 1.492, N-allyl-2-methoxy-N-[[4-[5-(trifluoromethyl)-1,2,4-oxadiazol-3-yl]phenyl]methyl]-propanamide]
≥ 80%: pest or weed control at 200 ppm [1] | pest or weed control at 200 ppm [2] | inhibition of growth at 20 ppm [3] | pest or weed control at 200 ppm (Phakopsora Pachyrhizi)

C=CCN(Cc1ccc(-c2noc(C(F)(F)F)n2)cc1)C(=O)C1OCCO1 [Compound 1.493, N-allyl-N-[[4-[5-(trifluoromethyl)-1,2,4-oxadiazol-3-yl]phenyl]methyl]-1,3-dioxolane-2-carboxamide]
≥ 80%: pest or weed control at 200 ppm [1] | pest or weed control at 200 ppm [2] | inhibition of growth at 20 ppm [3] | pest or weed control at 200 ppm (Phakopsora Pachyrhizi)

C=CCN(Cc1ccc(-c2noc(C(F)(F)F)n2)cc1)C(=O)C1CC1 [Compound 1.494, N-allyl-N-[[4-[5-(trifluoromethyl)-1,2,4-oxadiazol-3-yl]phenyl]methyl]-cyclopropane-carboxamide]
≥ 80%: pest or weed control at 200 ppm [1] | pest or weed control at 200 ppm [2] | inhibition of growth at 20 ppm [3] | pest or weed control at 200 ppm (Phakopsora Pachyrhizi)

CCN(Cc1ccc(-c2noc(C(F)(F)F)n2)cc1)C(=O)C1CCCC1 [Compound 1.495, N-ethyl-N-[[4-[5-(trifluoromethyl)-1,2,4-oxadiazol-3-yl]phenyl]methyl]-cyclopentane-carboxamide]
≥ 80%: pest or weed control at 200 ppm [1] | pest or weed control at 200 ppm [2] | inhibition of growth at 20 ppm [3] | pest or weed control at 200 ppm (Phakopsora Pachyrhizi)

CCN(Cc1ccc(-c2noc(C(F)(F)F)n2)cc1)C(=O)CCOC [Compound 1.496, N-ethyl-3-methoxy-N-[[4-[5-(trifluoromethyl)-1,2,4-oxadiazol-3-yl]phenyl]methyl]-propanamide]
≥ 80%: pest or weed control at 200 ppm [1] | pest or weed control at 200 ppm [2] | inhibition of growth at 20 ppm [3] | pest or weed control at 200 ppm (Phakopsora Pachyrhizi)

CCC(=O)N(CC)Cc1ccc(-c2noc(C(F)(F)F)n2)cc1 [Compound 1.497, N-ethyl-N-[[4-[5-(trifluoromethyl)-1,2,4-oxadiazol-3-yl]phenyl]methyl]-propanamide]
≥ 80%: pest or weed control at 200 ppm [1] | pest or weed control at 200 ppm [2] | inhibition of growth at 20 ppm [3] | pest or weed control at 200 ppm (Phakopsora Pachyrhizi)

CCN(Cc1ccc(-c2noc(C(F)(F)F)n2)cc1)C(=O)C1CCC1 [Compound 1.498, N-ethyl-N-[[4-[5-(trifluoromethyl)-1,2,4-oxadiazol-3-yl]phenyl]methyl]-cyclobulane-carboxamide]
≥ 80%: pest or weed control at 200 ppm [1] | pest or weed control at 200 ppm [2] | inhibition of growth at 20 ppm [3] | pest or weed control at 200 ppm (Phakopsora Pachyrhizi)

CCN(Cc1ccc(-c2noc(C(F)(F)F)n2)cc1)C(=O)COC [Compound 1.499, N-ethyl-2-methoxy-N-[[4-[5-(trifluoromethyl)-1,2,4-oxadiazol-3-yl]phenyl]methyl]-acetamide]
≥ 80%: pest or weed control at 200 ppm [1] | pest or weed control at 200 ppm [2] | inhibition of growth at 20 ppm [3] | pest or weed control at 200 ppm (Phakopsora Pachyrhizi)
